This is an account of results in PubChem BioAssay (NCI).

Among the test systems are HCC-2998 colon; HS 578T breast; MCF7 breast; OVCAR-5 ovarian; OVCAR-8 ovarian; SK-MEL-5 melanoma; SN12C renal; T-47D breast; UACC-62 melanoma; UO-31 renal.
Holding throughout (assay): NCI anticancer screen, dose series, 48 h

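All cell lines were grown in 96-well plates and treated with compound for 48 hours. Definition used: TGI = concentration required for complete inhibition of growth.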

For the compound `O=c1c2cc(I)ccc2nc(SCc2nncs2)n1Cc1ccccc1`, the TGI in the assay with HCC-2998 colon is over 100 µM; with HS 578T breast, 57.8 µM; in the assay with MCF7 breast, over 100 µM; in the assay on OVCAR-5 ovarian it was over 100 µM; with OVCAR-8 ovarian, over 100 µM; with SK-MEL-5 melanoma it was 88.3 µM. The TGI was over 100 µM with SN12C renal, over 100 µM with T-47D breast, over 100 µM in the assay on UACC-62 melanoma and 2.6 µM in the assay on UO-31 renal.
Regarding `CN(C)CCCN1C(=S)N(CCCN(C)C)c2c3ccccc3nc3c([N+](=O)[O-])ccc1c23`, the TGI stood at 14.5 µM with HCC-2998 colon; 41 µM in the assay on HS 578T breast; 19.4 µM with MCF7 breast; 39.5 µM with OVCAR-5 ovarian; 22.5 µM with OVCAR-8 ovarian; 18.8 µM in the assay with SK-MEL-5 melanoma. The TGI in the assay with SN12C renal was determined as 18.1 µM; with T-47D breast, 31.6 µM; with UACC-62 melanoma, 24.3 µM; in the assay on UO-31 renal, 27.9 µM.
For `O=c1[nH]c(Cc2ccccc2)nc2c1sc1nc3ccccc3n12`, the TGI in the assay with HCC-2998 colon, with HS 578T breast, in the assay on MCF7 breast, in the assay on OVCAR-5 ovarian, with OVCAR-8 ovarian and with SK-MEL-5 melanoma was over 100 µM each time. Besides, the TGI with SN12C renal, with T-47D breast, with UACC-62 melanoma and in the assay on UO-31 renal was over 100 µM each time.
Consider `O=C(O)CN1C=C(C(=O)c2cc3ccccc3n2S(=O)(=O)c2ccccc2)CCC1`, for which the TGI is over 100 µM in the assay on HCC-2998 colon; over 100 µM in the assay on HS 578T breast; over 100 µM with MCF7 breast; over 100 µM in the assay with OVCAR-5 ovarian; over 100 µM in the assay on OVCAR-8 ovarian; 71.8 µM in the assay with SK-MEL-5 melanoma. Also, the TGI in the assay on T-47D breast, in the assay with UACC-62 melanoma and with UO-31 renal was over 100 µM each time.
Turning to `N#Cc1nc(CCN2C(=O)c3ccccc3C2=O)oc1N`, the TGI with HCC-2998 colon, with HS 578T breast, in the assay on MCF7 breast, in the assay with OVCAR-5 ovarian, in the assay on OVCAR-8 ovarian and with SK-MEL-5 melanoma was over 100 µM throughout. For the same compound, the TGI in the assay with SN12C renal, in the assay with T-47D breast and in the assay with UO-31 renal was over 100 µM in each case.
Consider `O=c1[nH]c(=O)n(COCc2ccccc2)c2ccsc12`, for which the TGI with HCC-2998 colon, in the assay on HS 578T breast, with MCF7 breast, in the assay on OVCAR-5 ovarian, in the assay on OVCAR-8 ovarian and in the assay on SK-MEL-5 melanoma was over 100 µM each time. Besides, the TGI in the assay with SN12C renal and in the assay on T-47D breast was over 100 µM in each case.
`CC1=CC(=O)CC(C)(C)C1/C=C/C(C)=C/C=C/C(C)=C/C=C/C=C(C)/C=C/C=C(C)/C=C/C1C(C)=CC(=O)CC1(C)C` (stereo not drawn): the TGI was over 100 µM in the assay with HCC-2998 colon; over 100 µM in the assay on HS 578T breast; over 100 µM with MCF7 breast; over 100 µM in the assay on OVCAR-5 ovarian; 49 µM with OVCAR-8 ovarian; over 100 µM in the assay on SK-MEL-5 melanoma. Also, the TGI in the assay with T-47D breast and in the assay with UO-31 renal was over 100 µM in each case.
On to `Cc1ccc(NC(Nc2ccc(C)cc2C)=C(C(Cl)=C(Cl)Cl)[N+](=O)[O-])c(C)c1`, for which the TGI is 32.4 µM with HCC-2998 colon; over 100 µM in the assay with HS 578T breast; over 100 µM with MCF7 breast; 33.9 µM in the assay on OVCAR-8 ovarian; 14.4 µM in the assay on SK-MEL-5 melanoma; 33 µM in the assay on SN12C renal. For the same compound, the TGI with T-47D breast stood at 32.1 µM; in the assay on UACC-62 melanoma, 31.9 µM; with UO-31 renal, 26.6 µM.
In the case of `CC(C)(O)/C=C\P(=O)(O)O`, the TGI in the assay on HCC-2998 colon, in the assay with HS 578T breast, with MCF7 breast, in the assay on OVCAR-5 ovarian, with OVCAR-8 ovarian and in the assay with SK-MEL-5 melanoma was over 100 µM each time. For the same compound, the TGI with SN12C renal, in the assay on T-47D breast and with UACC-62 melanoma was over 100 µM each time.
As to `COc1ccc(N=Nc2c(C)c(C#N)c(=S)n(C3OC(CO)C(O)C(O)C3O)c2-c2ccccc2)cc1` (stereo not drawn), the TGI is over 100 µM in the assay on HCC-2998 colon; 55.3 µM with HS 578T breast; 84.7 µM with MCF7 breast; 81.6 µM in the assay on OVCAR-5 ovarian; 27.8 µM with SK-MEL-5 melanoma; over 100 µM in the assay on SN12C renal. Further, the TGI is 97.3 µM in the assay with T-47D breast, 47.6 µM in the assay on UACC-62 melanoma and over 100 µM with UO-31 renal.
On to `COC(=O)/C(C#N)=C(\Nc1ccccc1)N1CCOCC1`, for which the TGI in the assay with HCC-2998 colon, in the assay on HS 578T breast, with MCF7 breast, in the assay on OVCAR-5 ovarian, in the assay with OVCAR-8 ovarian and with SK-MEL-5 melanoma was over 100 µM throughout. The TGI with SN12C renal, in the assay with T-47D breast and in the assay on UO-31 renal was over 100 µM in each case.
Regarding `COc1ccccc1NC(=S)N/N=C/c1c(C)n(C)n(-c2ccccc2)c1=O`, the TGI in the assay with HCC-2998 colon, in the assay on HS 578T breast, in the assay with MCF7 breast, in the assay with OVCAR-8 ovarian, with SK-MEL-5 melanoma and in the assay on T-47D breast was over 100 µM throughout. Moreover, the TGI in the assay on UACC-62 melanoma and with UO-31 renal was over 100 µM each time.
